Starred links: 1 amine or outer side, 2 acyl side, 3 side chain; linkers in the order of their positions; H or OH if unused. Non-standard residues stand in square brackets, D forms with d. Residues, ends and D or L forms follow the SMILES beside them. Groups on a side chain read outwards from the residue. *: point of attachment. C20 diacid = O=C(O)CCCCCCCCCCCCCCCCCCC(=O)*; C18 diacid = O=C(O)CCCCCCCCCCCCCCCCC(=O)*; γGlu = O=C(O)[C@H](CCC(=O)[*:2])N[*:1]; Palmitoyl = CCCCCCCCCCCCCCCC(=O)*; AEEA = NCCOCCOCC(=O)O; Aib = CC(C)(N)C(=O)O
How the values were obtained:
CRF1R receptor = biological target: T1, CRF1R receptor (Homo sapiens, UniProt P34998); experiment: cAMP activity at anti-target CRF1R, CHO-K1 cell line clone 2 (Example 19.10); type: cell-based; conditions: CRF1R CHO-K1 clone 2; for Emax: 100% = Sauvagine at 100 nM; for EC50: 0% HSA, read-out: EC50 [nM] 0% HSA
T1 construct: host or cells: CHO-K1 clone 2
T1 sequence (P34998 24-415): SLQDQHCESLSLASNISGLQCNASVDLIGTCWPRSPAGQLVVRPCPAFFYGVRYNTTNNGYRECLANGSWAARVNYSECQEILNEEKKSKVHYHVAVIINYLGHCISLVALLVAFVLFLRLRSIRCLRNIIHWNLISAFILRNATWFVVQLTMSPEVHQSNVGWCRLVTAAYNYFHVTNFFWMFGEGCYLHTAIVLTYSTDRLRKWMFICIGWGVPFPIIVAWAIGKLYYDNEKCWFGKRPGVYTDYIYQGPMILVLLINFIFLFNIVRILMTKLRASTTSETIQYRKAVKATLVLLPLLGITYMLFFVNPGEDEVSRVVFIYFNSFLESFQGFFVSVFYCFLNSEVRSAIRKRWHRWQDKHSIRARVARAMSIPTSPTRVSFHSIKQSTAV
Protocol: The CRF1R-overexpression CHO-K1 cell line clone 2 was purchased from PerkinElmer.
Cells were grown in a 10 cm dish at 37° C./5% CO2 in medium (F12 (Hams)/10% FBS/400 μg/ml G418) to near confluence. At that stage, cells were harvested, resuspended to 10 million/mL in culture medium without G418 and with 10% DMSO. 1 mL vial aliquots were slowly frozen to -80° C. in isopropanol and then transferred in liquid nitrogen for storage. These vials were used to run the experiment following the procedure reported 10 in the previous paragraph, except for the compound used in the control well to define the 100% activation (Sauvagine at 100 nM)

human CRF2α receptor = biological target: T2, human CRF2α receptor (Homo sapiens, UniProt Q13324); experiment: cAMP agonism at human CRF2 α receptor in TeloHEAC cells (Example 7); type: cell-based; conditions: cAMP HTRF, TeloHEAC cells stably expressing human CRF2 α, 0% HSA; read-out: EC50 [nM], 0% HSA
T2 construct: expressed in transfected cells; host or cells: TeloHEAC
T2 sequence (Q13324 1-411): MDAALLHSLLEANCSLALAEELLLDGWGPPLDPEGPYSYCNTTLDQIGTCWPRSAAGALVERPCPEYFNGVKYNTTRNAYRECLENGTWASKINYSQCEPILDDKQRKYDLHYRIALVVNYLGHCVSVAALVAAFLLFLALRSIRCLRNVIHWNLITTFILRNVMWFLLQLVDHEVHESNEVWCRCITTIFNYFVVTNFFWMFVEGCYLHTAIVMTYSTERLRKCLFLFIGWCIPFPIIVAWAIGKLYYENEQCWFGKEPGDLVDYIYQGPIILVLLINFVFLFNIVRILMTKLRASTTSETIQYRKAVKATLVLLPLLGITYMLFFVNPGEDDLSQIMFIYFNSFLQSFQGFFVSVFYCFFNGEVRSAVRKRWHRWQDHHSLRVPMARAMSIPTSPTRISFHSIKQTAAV
Outline: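 Cryopreserved cells are thawed, washed and resuspended in IBMX-containing (2 mM) HEPES-buffered HBSS with or without 0.1% HSA. Compound incubation runs 30 min at room temperature with 2000 cells per well, then cAMP is measured by time-resolved FRET. Potency is expressed as EC50, efficacy relative to urocortin 2 at 1000 nM.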

Emax (CRF1R receptor) | EC50 (human CRF2α receptor) | EC50 (CRF1R receptor) | Compound
0.4% |  |  | CC[C@H](C)[C@H](N)C(=O)N[C@H](C(=O)N[C@@H](CC(C)C)C(=O)N[C@@H](CO)C(=O)N[C@@H](CC(C)C)C(=O)N[C@@H](CC(=O)O)C(=O)N[C@H](C(=O)N1CCC[C@H]1C(=O)N[C@H](C(=O)NCC(=O)N[C@@H](CC(C)C)C(=O)N[C@@H](CCCCNC(=O)COCCOCCNC(=O)COCCOCCNC(=O)CC[C@H](NC(=O)CCCCCCCCCCCCCCCCC(=O)O)C(=O)O)C(=O)N[C@@H](CCC(N)=O)C(=O)N[C@@H](CCCCN)C(=O)N[C@@H](CC(C)C)C(=O)N[C@@H](CC(C)C)C(=O)N[C@@H](CCCCN)C(=O)N[C@@H](CCC(N)=O)C(=O)N[C@@H](CCC(N)=O)C(=O)N[C@@H](CCCNC(=N)N)C(=O)N[C@@H](CCC(N)=O)C(=O)N[C@@H](CCCNC(=N)N)C(=O)N[C@@H](CCCCN)C(=O)N[C@@H](CCC(=O)O)C(=O)N[C@@H](CCCNC(=N)N)C(=O)N[C@@H](CCC(N)=O)C(=O)N[C@@H](CCC(N)=O)C(=O)N[C@@H](C)C(=O)N[C@@H](CCC(=O)O)C(=O)N[C@@H](CCCCN)C(=O)N[C@@H](CC(N)=O)C(=O)N[C@@H](C)C(=O)N[C@@H](CCCNC(=N)N)C(=O)N[C@H](C(=O)N[C@@H](CC(C)C)C(=O)N[C@@H](C)C(=O)N[C@@H](CCCNC(=N)N)C(=O)N[C@H](C(N)=O)C(C)C)[C@@H](C)CC)[C@@H](C)CC)C(C)C)C(C)C [compound 16] (H-IVLSLDVPIGLK([AEEA-AEEA-γGlu-C18 diacid])QKLLKQQRQRKERQQAEKNARILARV-NH2)
1.2% | 0.12 nM | > 100 nM | CC[C@H](C)[C@H](N)C(=O)N[C@H](C(=O)N[C@@H](CC(C)C)C(=O)N[C@@H](CO)C(=O)N[C@@H](CC(C)C)C(=O)N[C@@H](CC(=O)O)C(=O)N[C@H](C(=O)N1CCC[C@H]1C(=O)N[C@H](C(=O)N[C@@H](CCCCN)C(=O)N[C@@H](CC(C)C)C(=O)N[C@@H](CCCCNC(=O)COCCOCCNC(=O)COCCOCCNC(=O)CC[C@H](NC(=O)CCCCCCCCCCCCCCCCC(=O)O)C(=O)O)C(=O)N[C@@H](CCC(N)=O)C(=O)N[C@H](C(=O)N[C@@H](CC(C)C)C(=O)N[C@@H](CC(C)C)C(=O)N[C@@H](CCCCN)C(=O)N[C@@H](CCC(N)=O)C(=O)N[C@@H](CCC(=O)O)C(=O)N[C@@H](CCCNC(=N)N)C(=O)N[C@@H](CCC(N)=O)C(=O)N[C@@H](CCCCN)C(=O)NC(C)(C)C(=O)N[C@@H](CCC(N)=O)C(=O)N[C@@H](CCCNC(=N)N)C(=O)N[C@@H](CCC(N)=O)C(=O)N[C@@H](CCCCN)C(=O)N[C@@H](C)C(=O)N[C@@H](CCC(=O)O)C(=O)N[C@@H](CCCCN)C(=O)N[C@@H](CC(N)=O)C(=O)N[C@@H](CCCCN)C(=O)N[C@@H](CCC(N)=O)C(=O)N[C@H](C(=O)N[C@@H](CC(C)C)C(=O)N[C@@H](C)C(=O)N[C@@H](CCC(N)=O)C(=O)N[C@H](C(N)=O)C(C)C)[C@@H](C)CC)[C@@H](C)CC)[C@@H](C)CC)C(C)C)C(C)C [compound 22] (H-IVLSLDVPIKLK([AEEA-AEEA-γGlu-C18 diacid])QILLKQERQK[Aib]QRQKAEKNKQILAQV-NH2)
0.1% | 0.09 nM | > 100 nM | CCCCCCCCCCCCCCCC(=O)N[C@@H](CCC(=O)NCCCC[C@H](NC(=O)[C@H](CC(C)C)NC(=O)[C@H](CCCCN)NC(=O)[C@@H](NC(=O)[C@@H]1CCCN1C(=O)[C@H](NC(=O)[C@H](CC(=O)O)NC(=O)[C@H](CC(C)C)NC(=O)[C@H](CO)NC(=O)[C@H](CC(C)C)NC(=O)[C@@H](NC(=O)[C@@H](N)[C@@H](C)CC)C(C)C)C(C)C)[C@@H](C)O)C(=O)N[C@@H](CCCCN)C(=O)N[C@@H](CCCCN)C(=O)N[C@@H](CC(C)C)C(=O)N[C@@H](CC(C)C)C(=O)N[C@@H](CCCCN)C(=O)N[C@@H](CCC(N)=O)C(=O)N[C@@H](CCC(=O)O)C(=O)N[C@@H](CCCNC(=N)N)C(=O)N[C@@H](CCCCN)C(=O)N[C@@H](CCCNC(=N)N)C(=O)N[C@@H](CCCCN)C(=O)N[C@@H](CCC(=O)O)C(=O)N[C@@H](CCCNC(=N)N)C(=O)N[C@@H](CCC(=O)O)C(=O)N[C@@H](CCCCN)C(=O)N[C@@H](C)C(=O)N[C@@H](CCC(=O)O)C(=O)N[C@@H](CCCCN)C(=O)N[C@@H](CC(N)=O)C(=O)N[C@@H](C)C(=O)N[C@@H](CCCNC(=N)N)C(=O)N[C@H](C(=O)N[C@@H](CC(C)C)C(=O)N[C@@H](CCC(=O)O)C(=O)N[C@@H](CCCNC(=N)N)C(=O)N[C@H](C(N)=O)C(C)C)[C@@H](C)CC)C(=O)O [compound 25] (H-IVLSLD[dV]PTKLK([γGlu-Palmitoyl])KKLLKQERKRKEREKAEKNARILERV-NH2)
0.6% | 0.01 nM | > 100 nM | CCCCCCCCCCCCCCCC(=O)N[C@@H](CCC(=O)NCCCC[C@H](NC(=O)[C@H](CC(C)C)NC(=O)[C@H](CCCCN)NC(=O)[C@@H](NC(=O)[C@@H]1CCCN1C(=O)[C@H](NC(=O)[C@H](CC(=O)O)NC(=O)[C@H](CC(C)C)NC(=O)[C@H](CO)NC(=O)[C@H](CC(C)C)NC(=O)[C@@H](NC(=O)[C@@H](N)[C@@H](C)CC)C(C)C)C(C)C)[C@@H](C)O)C(=O)N[C@@H](CCCCN)C(=O)N[C@@H](CCCCN)C(=O)N[C@@H](CC(C)C)C(=O)N[C@@H](CC(C)C)C(=O)N[C@@H](CCCCN)C(=O)N[C@@H](CCC(N)=O)C(=O)N[C@@H](CCC(=O)O)C(=O)N[C@@H](CCCNC(=N)N)C(=O)N[C@@H](CCCCN)C(=O)N[C@@H](CCCNC(=N)N)C(=O)N[C@@H](CCCCN)C(=O)N[C@@H](CCC(=O)O)C(=O)N[C@@H](CCCNC(=N)N)C(=O)N[C@@H](CCC(=O)O)C(=O)NC(C)(C)C(=O)N[C@@H](C)C(=O)N[C@@H](CCC(=O)O)C(=O)N[C@@H](CCCCN)C(=O)N[C@@H](CC(N)=O)C(=O)N[C@@H](C)C(=O)N[C@@H](CCCNC(=N)N)C(=O)N[C@H](C(=O)N[C@@H](CC(C)C)C(=O)N[C@@H](CCC(=O)O)C(=O)N[C@@H](CCCNC(=N)N)C(=O)N[C@H](C(N)=O)C(C)C)[C@@H](C)CC)C(=O)O [compound 26] (H-IVLSLD[dV]PTKLK([γGlu-Palmitoyl])KKLLKQERKRKERE[Aib]AEKNARILERV-NH2; N-terminus assumed)

Compound | Emax (CRF1R receptor) | EC50 (human CRF2α receptor) | EC50 (CRF1R receptor)
CC[C@H](C)[C@H](N)C(=O)N[C@H](C(=O)N[C@@H](CC(C)C)C(=O)N[C@@H](CO)C(=O)N[C@@H](CC(C)C)C(=O)N[C@@H](CC(=O)O)C(=O)N[C@@H](C(=O)N1CCC[C@H]1C(=O)N[C@H](C(=O)N[C@@H](CCCCN)C(=O)N[C@@H](CC(C)C)C(=O)N[C@@H](CCCCNC(=O)COCCOCCNC(=O)COCCOCCNC(=O)CC[C@H](NC(=O)CCCCCCCCCCCCCCCCCCC(=O)O)C(=O)O)C(=O)N[C@@H](CCCCN)C(=O)N[C@@H](CCCCN)C(=O)N[C@@H](CC(C)C)C(=O)N[C@@H](CC(C)C)C(=O)N[C@@H](CCCCN)C(=O)N[C@@H](CCC(N)=O)C(=O)N[C@@H](CCC(=O)O)C(=O)N[C@@H](CCCNC(=N)N)C(=O)N[C@@H](CCCCN)C(=O)N[C@@H](CCCNC(=N)N)C(=O)NC(C)(C)C(=O)N[C@@H](CCC(=O)O)C(=O)N[C@@H](CCCNC(=N)N)C(=O)N[C@@H](CCC(=O)O)C(=O)N[C@@H](CCCCN)C(=O)N[C@@H](C)C(=O)N[C@@H](CCC(=O)O)C(=O)N[C@@H](CCCCN)C(=O)N[C@@H](C)C(=O)N[C@@H](C)C(=O)N[C@@H](CCCNC(=N)N)C(=O)N[C@H](C(=O)N[C@@H](CC(C)C)C(=O)N[C@@H](CCC(=O)O)C(=O)N[C@@H](CCCNC(=N)N)C(=O)N[C@H](C(N)=O)C(C)C)[C@@H](C)CC)[C@@H](C)O)C(C)C)C(C)C [SEQ ID NO: 224, IVLSLDvPTKLK*KKLLKQERKRAibEREKAEKAARILERV-NH2] (H-IVLSLD[dV]PTKLK([AEEA-AEEA-γGlu-C20 diacid])KKLLKQERKR[Aib]EREKAEKAARILERV-NH2; N-terminus assumed) | 52.6% |  | 
